According to patent EP1336602A1, “Nitrate prodrugs able to release nitric oxide in a controlled and selective way and their use for prevention and treatment of inflammatory, ischemic and proliferative diseases” (Scaramuzzino, Giovanni, priority 2002, dated 2003):

Experiments:
[1] = male, Wistar, in vivo, po, 1.09 mg/kg
[2] = system: S-nitrosohemoglobin (SNO-Hb); assay: S-nitrosohemoglobin (SNO-Hb) levels in rat blood, photolysis-chemiluminescence; type: in vivo, Sprague-Dawely rats; conditions: 100 mg/Kg i.p., versus endogenous levels
Procedure: A highly sensitive photolysis-chemiluminescence methodology was used. Nitric oxide, released from Hb-SNO through photolysis, was detected in a chemiluminescence spectrometer by reaction with ozone (McMahon, T. J., and Stamler, J. S. (1999) Methods Enzymol. 301, 99-114).
Blood was obtained from the left ventricle (arterial) and jugular vein (venous) of anesthetized Sprague-Dawely rats: 12 were controls and 12 were treated with 100 mg/Kg of N-[4-(5-p-tolyl-3-trifluoromethyl-1H-pyrazol-1-yl)phenylsulfonyl]-p-nitroxymethylbenzamide (Ela). Red blood cells were isolated by centrifugation at 800 g, washed three times in phosphate buffered saline at 4 °C, lysed by the addition of 4-fold excess volume of deionized water containing 0.5 mM EDTA and desalted rapidly according to the method of Penefsky at 4 °C.
In 24 rats, Hb samples were divided in two aliquots which were then treated or not treated with 10-fold excess HgCl2 which can remove the signal of Hb(Fell)NO.

SMILES | Rat arterial blood pressure [1] [%] | S-nitrosohemoglobin (SNO-Hb) levels in rat arterial blood ([2]; arterial blood (left ventricle)) | S-nitrosohemoglobin (SNO-Hb) levels in rat venous blood ([2]; venous blood (jugular vein))
C[C@@H]1C[C@H]2[C@@H]3CCC4=CC(=O)C=C[C@]4(C)[C@@]3(F)[C@@H](O)C[C@]2(C)[C@@]1(O)C(=O)COC(=O)c1ccc(CO[N+](=O)[O-])cc1 [ECXCa, (11β,16α)-9-fluoro-11,17-dihydroxy-21-(p-nitroxymethylbenzoyloxy)-pregna-1,4-diene-3,20-dione] | 100 |  | 
Cc1ccc(-c2cc(C(F)(F)F)nn2-c2ccc(S(=O)(=O)NC(=O)c3ccc(CO[N+](=O)[O-])cc3)cc2)cc1 [Ela, N-[4-(5-p-tolyl-3-trifluoromethyl-1H-pyrazol-1-yl)phenylsulfonyl]-p-nitroxymethylbenzamide] |  | significantly increase | significantly increase
